The values below come from patent publication US10704076B2, “Multi-tiered high through-put screen for compounds effective against bacterial biofilm and compounds effective for inhibiting and eradicating bacterial biofilm” (University of Cincinnati, priority 2013, dated 2020).

“Also recorded” adds a separate entry of the source.

Common to all, as to format: cell-based, Acinetobacter baumannii
Test [1] relates to A. baumannii established biofilm. Nature of the test: CLSM, effect of compound on the pre-existing biofilm. As to conditions: 24 hr; for killing of established A. baumannii biofilm (CLSM, in words): 300 μM; for Effect of compound on the pre-existing biofilm: Killing: Y / —. The protocol:
(§1) Broad spectrum agents (effective against all three bacterial species) and single agent compounds identified as HTS hits were investigated with CLSM confirmation of inhibition of biofilm formation (culture of bacteria with compounds) or killing of bacteria residing within an established biofilm (compound addition after culturing biofilm). To evaluate inhibition of P. aeruginosa biofilms, bacteria were sub-cultured into 10% L-broth and grown at 37° C. until the OD600 reached 0.25. The bacteria were further diluted 1:100 into a modified 0.5×M63 minimum media (50 mM KH2PO4, 7.5 mM (NH4)2SO4, 9 μM FeSO4, 0.5% casamino acids, 0.2% glucose, and 1 mM MgSO4). A. baumannii biofilms were also grown in 10% L-broth until the OD600 reached 0.05 but diluted 1:10 into 5% L-broth media. S. epidermidis biofilm cultures were grown. Briefly, the bacteria were grown in TSB until the OD600 reached 0.75, and a 1:100 dilution of the bacteria was sub-cultured into phosphate buffered saline (PBS). All of the biofilm bacterial cultures were grown in 96-well plate chambers (MatTek Corp., Ashland, Mass.) in the presence of 10 μM of each compound or DMSO as a control and incubated for 18 hrs at 37° C. To investigate the ability of compounds to kill bacteria within pre-existing biofilms, biofilms were grown under the same conditions, but without test compound. These biofilms were washed once with PBS and incubated an additional 24 hr at 37° C. in PBS containing 300 μM of each compound. All biofilm cultures were then washed twice with 100 μL of PBS and stained using the LIVE/DEAD® BacLight™ Bacterial Viability Kit (Invitrogen). Finally, biofilm images were obtained using a Zeiss LSM510 META Confocal Microscope (Carl Zeiss, Inc., Germany). A 488 nm laser was used in conjunction with a Plan-Apochromat 100×/1.4 Oil DIC objective. Z-stacks were 8 bit and measured 127.3 μm×127.3 μm×16.0 μm in size. The filters used were 505-530 and 620-680 IR, as the excitation and emission wavelengths for red fluorescence are 490 nm and 635 nm, respectively, and 480 nm and 500 nm for green fluorescence. Three dimensional images were generated using the “Projection” ability on LSM Image Browser software (v.1.4.0.121) or Zeiss LSM image browser software version 3.5 (Carl Zeiss, Inc., Germany), and Live/Dead calculations were conducted based upon these images using MacBiophotonics ImageJ following the guidelines in the cell counting guide by C. Labno {Rasband, 1997-2011 #25; Labno, #2} at the University of Chicago Integrated Light Microscopy Core. The thickness of the biofilm was calculated using Comstat software. A hit was defined as a >50% dead to live ratio.
(§2) The CLSM experiment was performed in one or two or all bacteria used in this study depending on its activity. For the validation of HTS hits, 10 μM of compound was added to each bacterial suspension and the resulting biofilm stained with LIVE/DEAD® BacLight™ Bacterial Viability Kit. The images were analyzed to determine the live and dead ratios of biofilm bacteria, the thickness of biofilms, and structural attributes of biofilms.

For test [2], the system named is A. baumannii biofilm. Put plainly: HTS total biofilm formation assay (crystal violet staining). The note with it: Acinetobacter baumannii, 10 point dose-response 0.1-50 μM. An excerpt:
(§3) Each HTS tier consisted of: (i) primary screening, (ii) confirmation screening and (iii) dose-response curve screening. Each tier of HTS included three distinct biological process assays. The first assay was an optical density measurement of bacteria growth in the presence of each compound reported as a total bacteria growth. In the second assay, resazurin solution was used as an indicator of metabolic activity to measure the live bacteria in the biofilms, reported as live biofilm. The final assay was crystal violet staining, which indicated the amount of biofilm formation and the effect of each compound on this process, reported as total biofilm formation.
(§4) Briefly, stationary phase bacteria grown in L-broth were diluted 1:200 into fresh L-broth and 50 μM of each test compound. After 20-24 hours, the optical density (OD560) of each suspension was measured using Zeiss Plate::Vision with a 560 BP filter (560 nm, 2.5% light intensity, 1 mm focus to bottom of plate, and exposure time of 100 ms). To measure bacterial viability in the biofilm, 50 μl of a 5 mg/ml resazurin solution in L-broth was added to each well after washing 3 times with 50 μl of PBS. The plates were then incubated at 37° C. for 30 or 180 min for A. baumannii and P. aeruginosa biofilms, respectively. Fluorescence was measured using Zeiss Plate::Vision at excitation and emission wavelengths of 535 and 580 nm, 100 ms exposure time, 2.5% intensity and a 2 mm focus to the bottom of the biofilms. To assess biofilm formation, plates were washed 3 times with PBS and then 50 μl of 0.01% of crystal violet was added to each well to assess bacterial biofilm formation as described in a similar borosilicate tube assay by O'Toole and Kolter. After incubation at room temperature for 30 min and removal of the crystal violet solution by washing with PBS, 95% ethanol was added to solubilize the crystal violet followed by incubation for 20 min at room temperature. Finally, the optical density of each plate was determined using measured by Zeiss Plate::Vision using the same settings used to measure total bacterial growth. These 3 steps were used in each of the three tiers for the HTS process: (i) single point primary screening at 10 μM, (ii) triplicate confirmation of hits from (i) at 10 μM and (iii) determination of AC50 values in 10 point dose-response at a concentration range of 0.1-50 μM) in hits from (ii). The AC50 represents the concentration of compound that inhibits 50% of bacterial growth, bacterial viability, or biofilm formation. Genedata Screener® Assay Analyzer Software (Ver. 9.0.0 Standard) was used to analyze data from all assay tiers. Compounds with an AC50 of less than 20 μM in one of the biological assays from the dose response screen were subject to additional investigation.

Test [3] has as its system A. baumannii. Nature of the test: HTS total bacterial growth assay (optical density OD560). The note with it: 10 point dose-response 0.1-50 μM, NS* = no sigmoid curve observed; for AC50: Acinetobacter baumannii, read-out: Total Bacteria Growth AC50.
Text: as §3, §4

Test [4] concerns A. baumannii biofilm. Nature of the test: HTS live biofilm assay (resazurin metabolic activity). As to conditions: Acinetobacter baumannii, 10 point dose-response 0.1-50 μM.
Text: as §3, §4
A general note: The colour change of resazurin is a common sign of viable cells or microbes.

Test [5] deals with A. baumannii biofilm. Nature of the test: CLSM, co-culture of bacteria with compound (inhibition of biofilm formation). As to conditions: for killing of residential bacteria, co-culture (CLSM, in words): 10 μM; for Co-culture of bacteria with compound: Killing: CLSM, 10 μM compound, 18 hrs, Y / —. Here is the method: as §1, §2

A word on the AC50: it is the concentration giving half of the maximal activity seen. As to `Oc1ccc2c(c1O)O[C@@]13NC(=S)N[C@@H](c4ccccc4)[C@H]1CCC[C@H]3[C@H]2c1ccccc1` (relative stereo) [Compound 24, (4R,4aR,7aS,8S,13aR)-rel-3,4,4a,5,6,7,7a,8-octahydro-11,12-dihydroxy-4,8-diphenyl-[1]Benzopyrano[3,2-i]quinazoline-2(1H)-thione], in test [1], the “killing of established A. baumannii biofilm (CLSM, in words)” value is “demonstrated killing of established biofilm culture; also recorded: effective against biofilm resident A. baumannii”. The “Effect of compound on the pre-existing biofilm: Killing” value (“Effect of compound … Killing” below) in test [1] (CLSM, 300 μM compound) is “Y (A hit was defined as a >50% dead to live ratio)”. The results for the AC50 in test [2], in test [3] and in test [4] were 3.75 µM, greater than 200 µM and 1.13 µM, respectively.
Consider `O/N=C1/C=Cc2[nH]c(-c3ccccc3)cc2/C1=N/O` [Compound 18, N-(4-nitroso-2-phenyl-1H-indol-5-yl)hydroxylamine], for which, in test [5], the “killing of residential bacteria, co-culture (CLSM, in words)” value (from here on “killing of residential bacteria”) was “effective in killing the bacterium”. Moreover, the “Co-culture of bacteria with compound: Killing” value in test [5] is “Y (A hit was defined as a >50% dead to live ratio)”. Also, the “killing of established A. baumannii biofilm (CLSM, in words)” value in test [1] is given as “demonstrated killing of established biofilm culture; also recorded: effective against biofilm resident A. baumannii”. Moreover, in test [1] (CLSM, 300 μM compound), the “Effect of compound … Killing” value is recorded as “Y (A hit was defined as a >50% dead to live ratio)”. For the same compound, the AC50 in test [2] turned out to be 14.6 µM; in test [3], 17.7 µM; in test [4], 4.53 µM.
For the compound `Nc1nonc1-c1nc2ccccc2n1CC(=O)N/N=C/c1cc(Br)cc(Br)c1O` [Compound 21, 2-[2-(4-amino-1,2,5-oxadiazol-3-yl)-1H-benzimidazol-1-yl]-N′-[(E)-(3,5-dibromo-2-hydroxyphenyl)methylidene]acetohydrazide], the values for the AC50 in test [2] and in test [4] were 14.6 µM and 9.86 µM, respectively. For the same compound, the “Total Bacteria Growth AC50” value in test [3] is listed as “NS*”.
With `O=C(N/N=C/c1cc(Br)c(O)cc1O)c1cc2c(ccc3ccccc32)o1` [Compound 23, N′-[(E)-(5-Bromo-2,4-dihydroxyphenyl)methylene]naphtho[2,1-b]furan-2-carbohydrazide], the half-maximal activity concentration (AC50) in test [2] is 17.5 µM; in test [3], greater than 200 µM; in test [4] it was 8.97 µM.
For the compound `CCCCC(C(=O)N/N=C/c1cc(Br)ccc1O)C(=O)N/N=C/c1cc(Br)ccc1O` [Compound 25, N′1,N′3-Bis [(E)-(5-bromo-2-hydroxyphenyl)methylene]-2-butylmalonohydrazide], the AC50 was 5.11 µM in test [2], greater than 200 µM in test [3] and 1.26 µM in test [4].
For `Cc1n[nH]c(O)c1C(c1cccc(OCc2ccc(Cl)c(Cl)c2)c1)c1c(C)n[nH]c1O` [Compound 26, 4-[{3-[(3,4-dichlorobenzyl)oxy]phenyl}(5-hydroxy-3-methyl-1H-pyrazol-4-yl)methyl]-3-methyl-1H-pyrazol-5-ol], in test [1], the “killing of established A. baumannii biofilm (CLSM, in words)” value is “demonstrated killing of established biofilm culture; also recorded: effective against biofilm resident A. baumannii”. For the same compound, in test [1] (CLSM, 300 μM compound), the “Effect of compound … Killing” value is recorded as “Y (A hit was defined as a >50% dead to live ratio)”. Also, the AC50 in test [2] was determined as 7.6 µM; in test [4] it was 8.07 µM. For the same compound, the “Total Bacteria Growth AC50” value in test [3] is “NS*”.
Turning to `Oc1c(Cl)cc(Cl)c(Cl)c1-c1nc2ccccc2[nH]1` [Compound 29, 2-(1H-benzoimidazol-2-YL)-3,4,6 Trichlrophenol], the AC50 was 8.37 µM in test [2] and greater than 200 µM in test [4]. Moreover, in test [3], the “Total Bacteria Growth AC50” value is recorded as “NS*”.
On the same counts, the results for `CCCCOC(=O)C(=O)CC(=O)/C=C/c1ccccc1` [Compound 30, Butyl (E)-2,4-dioxo-6-phenylhex-5-enoate] are 8.54 µM, 2.35 µM and “NS*”.
Turning to `Oc1c(I)cc(I)cc1/C=N/c1ccc2[nH]c(-c3ccccc3)nc2c1` [Compound 31], in test [5], the “killing of residential bacteria” value is recorded as “effective in killing the bacterium” and the “Co-culture of bacteria with compound: Killing” value is listed as “Y (A hit was defined as a >50% dead to live ratio)”. Moreover, in test [1], the “killing of established A. baumannii biofilm (CLSM, in words)” value is recorded as “demonstrated killing of established biofilm culture; also recorded: demonstrated ability in killing; also recorded: effective against biofilm resident A. baumannii”. Moreover, in test [1] (CLSM, 300 μM compound), the “Effect of compound on the pre-existing biofilm: Dispersion” value is recorded as “did demonstrate dispersion activity” and the “Effect of compound … Killing” value is on record as “Y (A hit was defined as a >50% dead to live ratio)”. The compound further returned an AC50 in test [2] of 23.5 µM. For the same compound, the AC50 in test [3] was greater than 200 µM. The compound further came in with an AC50 in test [4] of 17.4 µM.
With `O=C(N/N=C/c1ccc(O)cc1O)c1cc(-c2ccccc2)nc2ccccc12` [Compound 33, N′-(2,4-dihydroxybenzylidene)-2-phenylquinoline-4-carbohydrazide], the AC50 is 17.2 µM in test [2], greater than 200 µM in test [3] and 7.28 µM in test [4].
`C=CCSC1=NC(C)(C)CC2(CC(c3ccccc3)c3ccc(O)c(O)c3O2)N1` (stereo not shown) [Compound 34, 3,4,5′,6′-tetrahydro-6′,6′-dimethyl-4-phenyl-2′-(2-propen-1-ylthio)-spiro[2H-1-benzopyran-2,4′(3′H)-pyrimidine]-7,8-diol]: in test [5], the “killing of residential bacteria” value is recorded as “effective in killing the bacterium”. The “killing of established A. baumannii biofilm (CLSM, in words)” value in test [1] is on record as “effective against biofilm resident A. baumannii”.
As for “N-2-(4-methoxybenzothiazolyl)-2,3-dihydro-4-Methyl-5-oxo-1H,5HBenzo[ij]quinolizine-6-carboxamide [Compound 28]”, the “killing of established A. baumannii biofilm (CLSM, in words)” value in test [1] is given as “effective against biofilm resident A. baumannii”.
